For orientation: IC50 means the concentration needed to halve the response being measured.

The assay deals with MMP-13CD (catalytic domain of collagenase-3) (Homo sapiens, UniProt P45452). Put plainly: Thiopeptolide substrate hydrolysis inhibition assay, MMP-13CD. The settings on record: Table I; thiopeptolide substrate, HEPES pH 7.0, 22° C.; read-out: MMP-13CD IC50. It is filed as biochemical. The source says: Thiopeptolide substrates show virtually no decomposition or hydrolysis at or below neutral pH in the absence of a matrix metalloproteinase enzyme.
As to `COc1ccc(Br)cc1COC(=O)c1cc2c(=O)n(Cc3ccccc3)c(=O)n(C)c2s1` [Example 196, 3-Benzyl-1-methyl-2,4-dioxo-1,2,3,4-tetrahydro-thieno[2,3-d]pyrimidine-6-carboxylic acid 5-bromo-2-methoxy-benzyl ester], the IC50 was 30000 nM. The value for `O=C(OCc1ccoc1)c1cc2c(=O)n(Cc3ccccc3)c(=O)[nH]c2s1` [Example 71, 3-Benzyl-2,4-dioxo-1,2,3,4-tetrahydro-thieno[2,3-d]pyrimidine-6-carboxylic acid furan-3-ylmethyl ester] was 13000 nM; that for `Cc1ccc(CNC(=O)c2cc3c(=O)n(Cc4ccccc4)c(=O)n(C)c3s2)cc1` [Example 213, 3-Benzyl-1-methyl-2,4-dioxo-1,2,3,4-tetrahydro-thieno[2,3-d]pyrimidine-6-carboxylic acid 4-methyl-benzylamide] was 1700 nM; that for `Cn1c(=O)n(Cc2cccc(Cl)c2)c(=O)c2cc(C(=O)OCc3ccccc3)sc21` [Example 140] was 17 nM. For the molecule `Cn1c(=O)n(Cc2ccccc2)c(=O)c2cc(C(=O)NCc3cccc(Cl)c3)sc21` [Example 332, 3-Benzyl-1-methyl-2,4-dioxo-1,2,3,4-tetrahydro-thieno[2,3-d]pyrimidine-6-carboxylic acid 3-chloro-benzylamide], the IC50 turned out to be 1000 nM. For `Cn1c(=O)n(Cc2ccc(C(=O)OC(C)(C)C)cc2)c(=O)c2cc(C(=O)NCc3ccc(S(C)(=O)=O)cc3)sc21` [Example 80, 4-[6-(4-Methanesulfonyl-benzylcarbamoyl)-1-methyl-2,4-dioxo-1,4-dihydro-2H-thieno[2,3-d]pyrimidin-3-ylmethyl]-benzoic acid tert-butyl ester], the IC50 stood at 25000 nM. The value for `Cn1c(=O)n(CCOc2ccccc2)c(=O)c2cc(C(=O)OCc3ccccc3)sc21` [Example 133, 1-Methyl-2,4-dioxo-3-(2-phenoxy-ethyl)-1,2,3,4-tetrahydro-thieno[2,3-d]pyrimidine-6-carboxylic acid benzyl ester] was 74 nM; that for `Cn1c(=O)n(Cc2ccccc2)c(=O)c2cc(C(=O)OCc3ccoc3)sc21` [Example 207, 3-Benzyl-1-methyl-2,4-dioxo-1,2,3,4-tetrahydro-thieno[2,3-d]pyrimidine-6-carboxylic acid furan-3-ylmethyl ester] was 200 nM. The figure for `C/C=C/Cn1c(=O)c2cc(C(=O)NCc3ccc(OC)cc3)sc2n(C)c1=O` [Example 258] is 270 nM; for `CCOCCOCCOC(=O)c1cc2c(=O)n(Cc3ccccc3)c(=O)n(C)c2s1` [Example 177, 3-Benzyl-1-methyl-2,4-dioxo-1,2,3,4-tetrahydro-thieno[2,3-d]pyrimidine-6-carboxylic acid 2-(2-ethoxy-ethoxy)-ethyl ester] it is over 100000 nM. Take `Cn1c(=O)n(Cc2ccccc2)c(=O)c2cc(C(=O)NCCc3c[nH]c4ccccc34)sc21` [Example 351, 3-Benzyl-1-methyl-2,4-dioxo-1,2,3,4-tetrahydro-thieno[2,3-d]pyrimidine-6-carboxylic acid[2-(1H-indol-3-yl)-ethyl]-amide]: the IC50 turned out to be 2000 nM. With `CCOC(=O)c1ccc(Cn2c(=O)c3cc(C(=O)NCc4cccc(OC)c4)sc3n(C)c2=O)o1` [Example 65a, 5-[6-(3-Methoxy-benzylcarbamoyl)-1-methyl-2,4-dioxo-1,4-dihydro-2H-thieno[2,3-d]pyrimidin-3-ylmethyl]-furan-2-carboxylic acid ethyl ester], the IC50 stood at 1050 nM. The value for `CCCCC(CC)Cn1c(=O)c2cc(C(=O)NCc3cccc(OC)c3)sc2n(C)c1=O` (stereo not drawn) [Example 281] was 8900 nM; that for `Cc1ccc(Cn2c(=O)c3cc(C(=O)OCc4ccccc4)sc3n(C)c2=O)cc1` [Example 103, 1-Methyl-3-(4-methyl-benzyl)-2,4-dioxo-1,2,3,4-tetrahydro-thieno[2,3-d]pyrimidine-6-carboxylic acid benzyl ester] was 30 nM. For `COc1ccc(CNC(=O)c2cc3c(=O)n(Cc4ccc(-c5noc(=S)[nH]5)cc4)c(=O)n(C)c3s2)cc1` [Example 222, 1-Methyl-2,4-dioxo-3-[4-(5-thioxo-4,5-dihydro-1,2,4-oxadiazol-3-yl)-benzyl]-1,2,3,4-tetrahydro-thieno[2,3-d]pyrimidine-6-carboxylic acid 4-methoxy-benzylamide], the IC50 was found to be 4.2 nM.

In the case of `Cn1c(=O)n(CCCCCCC#N)c(=O)c2cc(C(=O)OCc3ccccc3)sc21` [Example 107, 3-(6-Cyano-hexyl)-1-methyl-2,4-dioxo-1,2,3,4-tetrahydro-thieno[2,3-d]pyrimidine-6-carboxylic acid benzyl ester], the IC50 was 2400 nM. Take `Cn1c(=O)n(Cc2ccccc2C(F)(F)F)c(=O)c2cc(C(=O)OCc3ccccc3)sc21` [Example 139, 1-Methyl-2,4-dioxo-3-(2-trifluoromethyl-benzyl)-1,2,3,4-tetrahydro-thieno[2,3-d]pyrimidine-6-carboxylic acid benzyl ester]: the IC50 turned out to be 250 nM.

Consider `COc1ccc(CNC(=O)c2cc3c(=O)n(C(C)c4ccccc4)c(=O)n(C)c3s2)cc1` (stereo not drawn) [Example 253], for which the IC50 was 810 nM. Consider `Cn1c(=O)n(Cc2ccc(C(F)(F)F)cc2)c(=O)c2cc(C(=O)OCc3ccccc3)sc21` [Example 106, 1-Methyl-2,4-dioxo-3-(4-trifluoromethyl-benzyl)-1,2,3,4-tetrahydro-thieno[2,3-d]pyrimidine-6-carboxylic acid benzyl ester], for which the IC50 was determined as 590 nM. The figure for `COc1cccc(CNC(=O)c2cc3c(=O)n(CCOc4ccc(Br)cc4)c(=O)n(C)c3s2)c1` [Example 233, 3-[2-(4-Bromo-phenoxy)-ethyl]-1-methyl-2,4-dioxo-1,2,3,4-tetrahydro-thieno[2,3-d]pyrimidine-6-carboxylic acid 3-methoxy-benzylamide] is 69 nM. The value for `Cn1c(=O)n(CCCN)c(=O)c2cc(C(=O)OCc3ccccc3)sc21` [Example 116, 3-(3-Amino-propyl)-1-methyl-2,4-dioxo-1,2,3,4-tetrahydro-thieno[2,3-d]pyrimidine-6-carboxylic acid benzyl ester] was 13000 nM.

With `Cn1c(=O)n(Cc2ccccc2)c(=O)c2cc(C(=O)OCc3ccc([N+](=O)[O-])cc3)sc21` [Example 179, 3-Benzyl-1-methyl-2,4-dioxo-1,2,3,4-tetrahydro-thieno[2,3-d]pyrimidine-6-carboxylic acid 4-nitro-benzyl ester], the IC50 was 250 nM. In the case of `CC(C)CCOC(=O)c1cc2c(=O)n(Cc3ccccc3)c(=O)n(C)c2s1` [Example 184, 3-Benzyl-1-methyl-2,4-dioxo-1,2,3,4-tetrahydro-thieno[2,2-d]pyrimidine-6-caboxylic acid 3-methyl-butyl ester], the IC50 was over 100000 nM. With `Cn1c(=O)n(Cc2ccccc2)c(=O)c2cc(C(=O)NCc3cccs3)sc21` [Example 344, 3-Benzyl-1-methyl-2,4-dioxo-1,2,3,4-tetrahydro-thieno[2,3-d]pyrimidine-6-carboxylic acid (thiophen-2-ylmethyl)-amide], the IC50 is 3600 nM.

As for `COc1ccc(CNC(=O)c2cc3c(=O)n(Cc4ccccc4)c(=O)n(C)c3s2)c(OC)c1` [Example 356, 3-Benzyl-1-methyl-2,4-dioxo-1,2,3,4-tetrahydro-thieno[2,3-d]pyrimidine-6-carboxylic acid 2,4-dimethoxy-benzylamide], the IC50 came to 10000 nM. The value for `Cn1c(=O)n(CCCc2ccccc2)c(=O)c2cc(C(=O)OCc3ccccc3)sc21` [Example 143, 1-Methyl-2,4-dioxo-3-(3-phenyl-propyl)-1,2,3,4-tetrahydro-thieno[2,3-d]pyrimidine-6-carboxylic acid benzyl ester] was 280 nM; that for `COc1ccc(CNC(=O)c2cc3c(=O)n(Cc4ccc(C(=O)O)cc4)c(=O)n(C)c3s2)cc1OC` [Example 54, 4-[6-(3,4-Dimethoxy-benzylcarbamoyl)-1-methyl-2,4-dioxo-1,4-dihydro-2H-thieno[2,3-d]pyrimidin-3-ylmethyl]-benzoic acid] was 4500 nM; that for `COc1cccc(CNC(=O)c2cc3c(=O)n(CC(=O)C(CC(=O)OC(C)(C)C)NC(=O)OCc4ccccc4)c(=O)n(C)c3s2)c1` (stereo not drawn) [Example 299] was 30000 nM. The value for `Cn1c(=O)n(Cc2ccccc2)c(=O)c2cc(C(=O)NCc3ccc(Cl)cc3Cl)sc21` [Example 329, 3-Benzyl-1-methyl-2,4-dioxo-1,2,3,4-tetrahydro-thieno[2,3-d]pyrimidine-6-carboxylic acid 2,4-dichloro-benzylamide] was 30000 nM.

Take `Cn1c(=O)n(Cc2ccccc2)c(=O)c2cc(C(=O)NCc3ccc(Cl)cc3)sc21` [Example 357, 3-Benzyl-1-methyl-2,4-dioxo-1,2,3,4-tetrahydro-thieno[2,3-d]pyrimidine-6-carboxylic acid 4-chloro-benzylamide]: the IC50 came to 320 nM. Consider `Cn1c(=O)n(Cc2ccc(C(=O)OC(C)(C)C)cc2)c(=O)c2cc(C(=O)NCc3cccc(OC(F)F)c3)sc21` [Example 78, 4-[6-(3-Difluoromethoxy-benzylcarbamoyl)-1-methyl-2,4-dioxo-1,4-dihydro-2H-thieno[2,3-d]pyrimidin-3-ylmethyl]-benzoic acid tert-butyl ester], for which the IC50 was 900 nM. On to `Cn1c(=O)n(Cc2ccccc2)c(=O)c2cc(C(=O)NCCCCc3ccccc3)sc21` [Example 338, 3-Benzyl-1-methyl-2,4-dioxo-1,2,3,4-tetrahydro-thieno[2,3-d]pyrimidine-6-carboxylic acid (4-phenyl-butyl)-amide], for which the IC50 was over 100000 nM. The figure for `COc1ccc(CNC(=O)c2cc3c(=O)n(CCNS(=O)(=O)c4ccc(Cl)cc4)c(=O)n(C)c3s2)cc1` [Example 231, 3-[2-(4-Chloro-benzenesulfonylamino)-ethyl]-1-methyl-2,4-dioxo-1,2,3,4-tetrahydro-thieno[2,3-d]pyrimidine-6-carboxylic acid 4-methoxy-benzylamide] is 2900 nM.

Values taken from patent publication US20030004172A1, “Fused pyrimidinone matrix metalloproteinase inhibitors” (priority 2001, published 2003).
